Data on eleven compounds can be found in ChEMBL document CHEMBL1201862, “PubChem BioAssay data set” (2004).

Among the test systems are 786-0; A498; CAKI-1; COLO 205; EKVX; HL-60; HOP-92; IGROV-1; K562; M14; MDA-MB-435; NCI/ADR-RES; PC-3; RPMI-8226; SK-MEL-28; SN12C; SNB-75; UACC-62; UO-31; KM-20L2.
What all share (assay): growth of human tumour cells (NCI), 48 h

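Assay format: 96-well plates, 48-hour exposure. GI50 = concentration required for 50% inhibition of growth.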 Activity calls are given as the source filed them. No stated cut-off is given here; in the data, active = GI50 up to about 1.1 µM and inactive = higher.

Turning to `CN(C)Cc1cc(/N=N/c2ccc(Cl)cc2)ccc1O`, the GI50 was 12.8 µM (inactive) in the assay with 786-0; 16.4 µM (inactive) in the assay with A498; 15.4 µM (inactive) in the assay with CAKI-1; 3.81 µM (inactive) with COLO 205; 18.3 µM (inactive) in the assay on EKVX; 13.5 µM (inactive) in the assay with HL-60. In addition, the GI50 in the assay with HOP-92 is 4.46 µM (inactive); in the assay on IGROV-1, 15.8 µM (inactive); in the assay on K562, 17.3 µM (inactive); in the assay on M14 it was 9.75 µM (inactive); with MDA-MB-435, 16.7 µM (inactive); in the assay with NCI/ADR-RES, 17.7 µM (inactive). Moreover, the GI50 in the assay with PC-3 was 14.7 µM (inactive); in the assay with RPMI-8226, > 10 µM (inactive); with SK-MEL-28, 16 µM (inactive); in the assay with SN12C, 16.9 µM (inactive); in the assay on SNB-75 it was 14.9 µM (inactive); with UACC-62 it was 16 µM (inactive). Further, the GI50 with UO-31 was 11.7 µM (inactive).

Take `CCOc1cc(NC(C)=O)ccc1C(=O)NNC(=O)c1ccccc1OC(C)=O`: the GI50 in the assay on 786-0 was 4.53 µM (inactive); in the assay on A498, 16.1 µM (inactive); in the assay with CAKI-1, 3.21 µM (inactive); in the assay on COLO 205 it was 21.5 µM (inactive); in the assay on EKVX it was 5.18 µM (inactive); in the assay on HL-60, 4.28 µM (inactive). For the same compound, the GI50 is 29.9 µM (inactive) in the assay with HOP-92; 3.03 µM (inactive) in the assay on IGROV-1; 3.02 µM (inactive) in the assay on K562; 7.18 µM (inactive) in the assay on M14; 15 µM (inactive) in the assay on MDA-MB-435; 17.7 µM (inactive) with NCI/ADR-RES. For the same compound, the GI50 was 11.1 µM (inactive) in the assay on PC-3; 3 µM (inactive) with RPMI-8226; 21.5 µM (inactive) in the assay on SK-MEL-28; 5.24 µM (inactive) with SN12C; 8.05 µM (inactive) in the assay on SNB-75; 8.36 µM (inactive) with UACC-62. Moreover, the GI50 in the assay on UO-31 was 3.86 µM (inactive).

For `[N-]=[N+]=Nc1c(Cc2ccccc2)c(Cl)nc2ccccc12`, the GI50 with 786-0 was 35.6 µM (inactive); with A498, 26.2 µM (inactive); in the assay on CAKI-1, 21.4 µM (inactive); in the assay on COLO 205, 15.1 µM (inactive); in the assay on EKVX, 27.2 µM (inactive); in the assay on HL-60, 23.8 µM (inactive). For the same compound, the GI50 with HOP-92 was 20.2 µM (inactive); with IGROV-1, 26.6 µM (inactive); in the assay with K562 it was 23.9 µM (inactive); in the assay with M14, 20.8 µM (inactive); with MDA-MB-435, 13.6 µM (inactive); in the assay on NCI/ADR-RES it was 22.4 µM (inactive). The GI50 in the assay with PC-3 was 25.6 µM (inactive); in the assay with RPMI-8226, 38.3 µM (inactive); in the assay with SK-MEL-28 it was 45.5 µM (inactive); in the assay with SN12C it was 23.6 µM (inactive); in the assay on SNB-75, 22.6 µM (inactive); in the assay on UACC-62, 22.6 µM (inactive). The GI50 in the assay on UO-31 was 28.6 µM (inactive).

In the case of `CC(=O)Oc1c2c(c(CC=C(C)C)c3c1C(=O)C1=C[C@@H]4CC5C(C)(C)OC(C/C=C(/C)C(=O)O)(C4=O)[C@@]15O3)OC(C)(CCC=C(C)C)C=C2` (some centres not stated), the GI50 was 0.0989 µM (active) with 786-0; 0.65 µM (active) in the assay with A498; 0.174 µM (active) in the assay on CAKI-1; 0.195 µM (active) with COLO 205; 0.249 µM (active) in the assay on EKVX; 0.0408 µM (active) in the assay with HL-60. In addition, the GI50 is 0.237 µM (active) in the assay on HOP-92; 0.0998 µM (active) with IGROV-1; 0.409 µM (active) with K562; 0.282 µM (active) with M14; 0.161 µM (active) in the assay with MDA-MB-435; 0.525 µM (active) with NCI/ADR-RES. Moreover, the GI50 in the assay with PC-3 was 0.244 µM (active); in the assay on RPMI-8226, 0.184 µM (active); in the assay with SK-MEL-28, 0.188 µM (active); in the assay on SN12C, 0.181 µM (active); in the assay on SNB-75, 0.323 µM (active); in the assay on UACC-62 it was 0.282 µM (active). The GI50 with UO-31 is 0.173 µM (active).

`Cc1ccc(S(=O)(=O)n2c(-c3ccccc3)c(-c3ccccc3)c3ccccc32)cc1`: the GI50 in the assay with 786-0 was > 100 µM (inactive); with COLO 205, > 100 µM (inactive); in the assay on EKVX, > 100 µM (inactive); with HL-60, > 100 µM (inactive); with HOP-92, 3.08 µM (inactive); with IGROV-1, > 100 µM (inactive). For the same compound, the GI50 in the assay on K562 was 64.9 µM (inactive); in the assay with KM-20L2 it was > 100 µM (inactive); with M14, > 100 µM (inactive); with RPMI-8226, 23.1 µM (inactive); in the assay with SK-MEL-28, > 100 µM (inactive); with SN12C, > 100 µM (inactive). For the same compound, the GI50 in the assay with SNB-75, in the assay on UACC-62 and with UO-31 was > 100 µM (inactive) in each case.

With `Cc1ccc(NCC(=O)N2CC(=O)Nc3ccccc32)c(C)c1`, the GI50 with 786-0, in the assay with CAKI-1, in the assay on COLO 205, in the assay on EKVX, with HL-60 and in the assay on HOP-92 was > 100 µM (inactive) throughout. In addition, the GI50 in the assay with K562, in the assay with KM-20L2, in the assay with M14, with RPMI-8226, in the assay on SK-MEL-28 and with SN12C was > 100 µM (inactive) throughout. Moreover, the GI50 in the assay on SNB-75 was > 100 µM (inactive); with UACC-62, 95.1 µM (inactive); with UO-31, > 100 µM (inactive).

Take `O=C(CSc1nc2ccc(I)cc2c(=O)n1Cc1ccccc1)NNC(=O)c1ccccc1`: the GI50 was 8.97 µM (inactive) in the assay with 786-0; 11.6 µM (inactive) in the assay on A498; 2.89 µM (inactive) in the assay with CAKI-1; 18.9 µM (inactive) with COLO 205; 4.06 µM (inactive) with EKVX; > 100 µM (inactive) with HL-60. Besides, the GI50 is 8.24 µM (inactive) in the assay with HOP-92; 9.27 µM (inactive) with IGROV-1; 2.2 µM (inactive) with K562; 29.3 µM (inactive) in the assay with M14; 35 µM (inactive) in the assay with MDA-MB-435; 13.6 µM (inactive) in the assay on NCI/ADR-RES. Also, the GI50 in the assay on PC-3 is 10.7 µM (inactive); with RPMI-8226, 3.52 µM (inactive); with SK-MEL-28, 15.4 µM (inactive); in the assay on SN12C, 17.1 µM (inactive); in the assay with SNB-75, 2.38 µM (inactive); in the assay on UACC-62 it was 14.2 µM (inactive). In addition, in the assay on UO-31, the GI50 was 1.15 µM (inactive).

As for `Cc1ccc(C(=O)N/N=C(\N=N\c2cccc(Cl)c2)c2ccc(N(CCC#N)CCC#N)cc2C)cc1`, the GI50 is 82 µM (inactive) in the assay on 786-0; > 100 µM (inactive) with A498; > 100 µM (inactive) in the assay on CAKI-1; > 100 µM (inactive) in the assay on COLO 205; > 100 µM (inactive) with EKVX; 56.9 µM (inactive) in the assay with HL-60. Moreover, the GI50 with HOP-92, in the assay with IGROV-1, in the assay on K562, with M14, in the assay with MDA-MB-435 and in the assay with NCI/ADR-RES was > 100 µM (inactive) in each case. Besides, the GI50 in the assay on PC-3 was > 100 µM (inactive); in the assay with RPMI-8226, 91.8 µM (inactive); in the assay on SK-MEL-28 it was > 100 µM (inactive); with SN12C, > 100 µM (inactive); in the assay with SNB-75 it was 75.9 µM (inactive); with UACC-62, > 100 µM (inactive). For the same compound, in the assay on UO-31, the GI50 is > 100 µM (inactive).

As to `O=C(COc1ccccc1Cl)N1N=C(c2ccc(Cl)cc2)CC1(O)c1ccccc1` (configuration not stated), the GI50 in the assay on 786-0, in the assay with CAKI-1, with COLO 205, in the assay with HL-60, in the assay with HOP-92 and with IGROV-1 was > 100 µM (inactive) each time. Further, the GI50 in the assay on K562, in the assay with KM-20L2, with M14, with RPMI-8226, in the assay with SK-MEL-28 and in the assay on SN12C was > 100 µM (inactive) each time. Besides, the GI50 in the assay with SNB-75, in the assay on UACC-62 and in the assay with UO-31 was > 100 µM (inactive) throughout.

For `O=C(COc1ccc(OCC(=O)N2C(=O)CN(c3ccccc3)C2=S)cc1)N1C(=O)CN(c2ccccc2)C1=S`, the GI50 with 786-0 is > 57 µM (inactive); with A498, > 56.5 µM (inactive); with CAKI-1, > 57.7 µM (inactive); in the assay on COLO 205, > 100 µM (inactive); in the assay on EKVX it was > 53.6 µM (inactive); with HL-60, > 100 µM (inactive). Besides, the GI50 is > 53.2 µM (inactive) with HOP-92; > 25 µM (inactive) in the assay on IGROV-1; > 100 µM (inactive) in the assay on K562; > 57.9 µM (inactive) in the assay with M14; > 55.3 µM (inactive) with MDA-MB-435; > 55.7 µM (inactive) in the assay on NCI/ADR-RES. The GI50 is > 25 µM (inactive) in the assay on PC-3; > 100 µM (inactive) with RPMI-8226; > 100 µM (inactive) in the assay on SK-MEL-28; > 59.2 µM (inactive) in the assay on SN12C; > 25 µM (inactive) in the assay on SNB-75; > 56.1 µM (inactive) in the assay on UACC-62. The GI50 with UO-31 was > 56.6 µM (inactive).

For `COC(=O)/C=C\C(C#N)(C#N)/N=C/c1ccccc1`, the GI50 in the assay with 786-0 is 1.63 µM (inactive); with A498 it was 18.7 µM (inactive); in the assay with CAKI-1 it was 2.86 µM (inactive); in the assay with COLO 205 it was 1.62 µM (inactive); with EKVX it was 12.8 µM (inactive); in the assay on HL-60, 2.25 µM (inactive). For the same compound, the GI50 in the assay on HOP-92 was 1.55 µM (inactive); with IGROV-1 it was 12.9 µM (inactive); in the assay on K562, 3.37 µM (inactive); with M14 it was 2.25 µM (inactive); with MDA-MB-435, 2.33 µM (inactive); in the assay with NCI/ADR-RES it was 2.88 µM (inactive). In addition, the GI50 with PC-3 is 5.94 µM (inactive); in the assay on RPMI-8226, 0.573 µM (active); in the assay on SK-MEL-28 it was 6 µM (inactive); in the assay on SN12C, 11.1 µM (inactive); in the assay with SNB-75 it was 6.35 µM (inactive); in the assay on UACC-62, 14.5 µM (inactive). In addition, in the assay on UO-31, the GI50 was 2.42 µM (inactive).
